Active and inactive are the calls of the source.
Legend:
[1] = molecular target: T1, Sentrin-specific protease 7 (Homo sapiens, UniProt Q9BQF6); format: functional;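 further: Luminescence-based dose-response confirmation of ultra-high-throughput screening hits, measuring inhibition of SENP7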
T1 sequence (Q9BQF6 whole entry): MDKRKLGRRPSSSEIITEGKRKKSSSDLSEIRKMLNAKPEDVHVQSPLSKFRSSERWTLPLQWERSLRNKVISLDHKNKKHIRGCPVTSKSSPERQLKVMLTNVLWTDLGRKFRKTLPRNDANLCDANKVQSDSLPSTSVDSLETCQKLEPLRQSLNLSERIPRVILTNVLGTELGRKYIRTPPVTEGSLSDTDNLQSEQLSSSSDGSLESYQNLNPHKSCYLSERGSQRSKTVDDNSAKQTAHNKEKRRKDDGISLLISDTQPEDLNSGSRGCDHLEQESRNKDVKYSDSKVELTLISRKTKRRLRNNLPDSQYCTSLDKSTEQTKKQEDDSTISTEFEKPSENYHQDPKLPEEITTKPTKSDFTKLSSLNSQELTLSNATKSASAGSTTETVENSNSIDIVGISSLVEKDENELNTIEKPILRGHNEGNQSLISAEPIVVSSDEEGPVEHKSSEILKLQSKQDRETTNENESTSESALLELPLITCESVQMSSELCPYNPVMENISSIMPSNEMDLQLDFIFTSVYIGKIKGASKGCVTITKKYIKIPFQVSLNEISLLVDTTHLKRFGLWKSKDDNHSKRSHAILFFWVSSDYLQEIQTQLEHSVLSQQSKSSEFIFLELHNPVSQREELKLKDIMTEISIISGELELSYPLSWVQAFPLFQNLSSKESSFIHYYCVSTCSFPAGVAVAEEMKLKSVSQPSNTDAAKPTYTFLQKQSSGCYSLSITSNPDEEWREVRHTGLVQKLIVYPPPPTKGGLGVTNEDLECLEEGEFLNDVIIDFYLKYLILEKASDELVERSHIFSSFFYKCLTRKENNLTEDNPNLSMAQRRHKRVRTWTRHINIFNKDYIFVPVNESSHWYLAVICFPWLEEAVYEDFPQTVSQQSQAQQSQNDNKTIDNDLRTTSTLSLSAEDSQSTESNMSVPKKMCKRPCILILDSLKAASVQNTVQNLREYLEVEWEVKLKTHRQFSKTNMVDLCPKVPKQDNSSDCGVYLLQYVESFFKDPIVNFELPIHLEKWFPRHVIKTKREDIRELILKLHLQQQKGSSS

[2] = molecular target: T2, 1-phosphatidylinositol 4,5-bisphosphate phosphodiesterase beta-3 (Homo sapiens, UniProt Q01970); experiment: Fluorescence-based biochemical high throughput dose response assay to identify inhibitors of phospholipase C isozymes (PLC-B3).
T2 sequence (Q01970 whole entry): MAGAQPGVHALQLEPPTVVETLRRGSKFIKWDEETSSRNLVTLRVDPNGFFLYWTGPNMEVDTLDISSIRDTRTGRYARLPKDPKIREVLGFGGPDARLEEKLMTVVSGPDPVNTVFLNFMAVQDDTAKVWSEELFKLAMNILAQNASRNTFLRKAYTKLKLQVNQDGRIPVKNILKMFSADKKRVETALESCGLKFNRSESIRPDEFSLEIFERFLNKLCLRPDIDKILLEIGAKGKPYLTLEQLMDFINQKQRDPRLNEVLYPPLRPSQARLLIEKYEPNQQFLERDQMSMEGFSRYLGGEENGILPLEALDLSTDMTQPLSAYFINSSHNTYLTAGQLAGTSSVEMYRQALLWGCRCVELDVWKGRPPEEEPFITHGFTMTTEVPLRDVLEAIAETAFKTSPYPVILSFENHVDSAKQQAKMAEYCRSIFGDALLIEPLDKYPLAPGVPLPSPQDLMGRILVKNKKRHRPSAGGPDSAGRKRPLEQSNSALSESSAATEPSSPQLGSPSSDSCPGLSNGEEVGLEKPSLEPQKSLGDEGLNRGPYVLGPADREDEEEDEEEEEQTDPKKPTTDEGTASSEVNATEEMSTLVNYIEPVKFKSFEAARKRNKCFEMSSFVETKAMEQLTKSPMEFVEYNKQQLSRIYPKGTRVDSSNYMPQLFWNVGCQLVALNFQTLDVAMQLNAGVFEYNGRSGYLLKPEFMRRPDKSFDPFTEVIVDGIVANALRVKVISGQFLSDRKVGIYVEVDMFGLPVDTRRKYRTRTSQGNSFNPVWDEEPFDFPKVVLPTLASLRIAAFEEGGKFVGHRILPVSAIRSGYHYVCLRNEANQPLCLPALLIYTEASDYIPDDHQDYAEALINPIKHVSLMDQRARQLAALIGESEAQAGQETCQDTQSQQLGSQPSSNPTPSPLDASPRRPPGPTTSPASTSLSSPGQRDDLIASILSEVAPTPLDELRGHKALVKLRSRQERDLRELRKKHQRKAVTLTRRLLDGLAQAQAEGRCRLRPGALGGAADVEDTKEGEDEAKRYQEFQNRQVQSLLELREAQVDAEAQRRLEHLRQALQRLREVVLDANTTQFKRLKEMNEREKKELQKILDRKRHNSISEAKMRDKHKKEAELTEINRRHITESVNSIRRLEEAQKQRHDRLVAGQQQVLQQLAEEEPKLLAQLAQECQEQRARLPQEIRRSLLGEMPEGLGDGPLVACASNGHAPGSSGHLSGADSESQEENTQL

Structure (SMILES)	IC50 [1]	IC50 [2]
CN(C)S(=O)(=O)Oc1cccc(C(=O)Nc2ccc(Cl)c(Cl)c2)c1	5.38 µM (active)	–
Cc1ccc2[nH]c(/C(C#N)=C/c3ccc(O)c(O)c3)nc2c1	9.9 µM (active)	–
O=C(NN1C(=O)CSC1=S)C(=O)NN1C(=O)CSC1=S	–	> 122 µM (inactive)
O=C1NC(=S)S/C1=C\C=C\c1ccc([N+](=O)[O-])o1	–	> 122 µM (inactive)
